Results as given in patent publication US20040248913A1, “(Pyridinyl and pyrimidyl) trienoic acid derivatives as retinoid x receptor modulators” (priority 2001, published 2004).

Key:
[1] = test system: mice transgenic for the human apolipoprotein A-I gene; experiment: Transgenic mice carrying the human apo A-I gene; assay type: in vivo, mouse
Source text: Mice transgenic for the human apolipoprotein A-I gene (obtained from Jackson Laboratory) are used to evaluate PPARγ mediated effects on high density lipoprotein (HDL) cholesterol. The mice are handled as described above for db/db mice, except that they are fed Purina 5001.

rodent models of NIDDM = experiment: Rodent models of NIDDM / Type II Diabetes; assay type: in vivo
Source text: (§1) Rodents that are genetically defective in the leptin pathway are commonly used as animal models of non-insulin dependant diabetes mellitus (NIDDM). db/db mice and ZDF rats develop frank diabetes that progresses to include β-cell failure and the accompanying precipitous drop in plasma insulin levels. […] All three rodent models were used to examine the efficacy of oral dosing with compounds of the invention on diabetes, insulin sensitivity, food consumption and body weight gain.
(§2) Mice (obtained from Jackson Laboratory), ZDF rats (obtained from Genetic Models Inc.) and fa/fa rats (obtained from either Charles River, or Harlan) are maintained on 12-hour light/dark cycle. Mice (age 28-42 days) are caged in groups of 5-6. Rats (age 7 weeks) are housed individually. All animals are allowed ad libitum access to water and food (Purina 5015 for mice and 5008 for rats). Compounds are administered at the specified doses by oral gavage on the morning of each day of any experiment. Blood samples are obtained 3 hours after dosing from fed animals under anesthesia and collected into heparinized capillary tubes from the tail vein.
On the other hand, full antagonists have no effect on glucose, triglycerides or the thyroid status in these same model systems. We have identified a specific subset of rexinoids that maintain the desirable insulin sensitizing activity and eliminate both the suppression of the thyroid axis and triglyceride elevations. These compounds are heterodimer selective modulators of RXR activity. They bind to RXR with high affinity (generally Ki<50 nM) and produce potent synergistic activation of the RXR:PPARγ heterodimer. This synergistic activation of PPARγ in vitro is presumably a major determinant of the antidiabetic efficacy of compounds in vivo.

RXRα:RAR heterodimer = experiment: RXR:RAR heterodimer cotransfection assay in CV-1 cells; assay type: cell-based, human; settings: alone
Source text: In the co-transfection assay, cloned cDNA for one or more IRs (e.g., human RARα, RXRα, or PPARγ), alone or in combination (i.e. for heterodimer assays) under the control of a constitutive promoter (e.g., the SV 40, RSV or CMV promoter) is introduced by transfection (a procedure to introduce exogenous genes into cells) into a background cell substantially devoid of endogenous IRs. These introduced gene(s) direct the recipient cells to make the IR protein(s) of interest. A further gene is also introduced (co-transfected) into the same cells in conjunction with the IR gene(s). This further gene, comprising the cDNA for a reporter protein, such as firefly luciferase (LUC), controlled by an appropriate hormone responsive promoter containing a hormone response element (HRE). This reporter plasmid functions as a reporter for the transcriptional-modulating activity of the target IR(s). Thus, the reporter acts as a surrogate for the products (mRNA then protein) normally expressed by a gene under control of the target receptor(s) and their native hormone(s).
Compounds of the present invention were also tested for the ability to synergize with an RAR or PPARγ agonist in the context of an RXR heterodimer. […] Efficacy of the compounds of the present invention in the agonist and synergy assays was calculated as the maximum response obtained over the range of the dose response curve relative to the maximum response obtained by the reference agonist. Antagonist efficacy was determined as a function (%) of maximal inhibition.
RAR suppresses RXR ligand binding and transactivation of typical RXR agonists via allosteric interactions. […] However, when RAR is occupied, typical RXR agonists activate the heterodimer. […] To examine the effects of the compounds of the present invention on the transcriptional properties of the RXR:RAR heterodimer, a heterodimer cotransfection assay as described above was employed.

db/db mice = experiment: db/db mice, daily oral gavage; assay type: in vivo, mouse; settings: 7 week old db/db mice
Source text: as §1, §2

Cc1cc2c(cc1C1(c3ccc(C(=O)O)cn3)CC1)C(C)(C)CCC2(C)C [LG100268]
Triglycerides [1]: raises triglycerides
Blood glucose levels (rodent models of NIDDM): lower blood glucose levels
Insulin sensitizing activity (rodent models of NIDDM): efficacious insulin sensitizers
Thyroid hormone axis (rodent models of NIDDM): suppress the thyroid hormone axis
Triglycerides (rodent models of NIDDM): raise triglycerides

C/C(=C\c1ccc(C(=O)O)cc1)c1ccc2c(c1)C(C)(C)CCC2(C)C [TTNPB, (E)-4-[2-(5,6,7,8-tetrahydro-5,5,8,8-tetramethyl-2-naphthalenyl)-1-propenyl]benzoic acid, reference compound]
RXR:RAR agonist activity / transactivation alone (in words) (RXRα:RAR heterodimer): strongly transactivate

CC1=C(/C=C/C(C)=C/C=C/C(C)=C/C(=O)O)C(C)(C)CCC1 [ATRA, all-trans retinoic acid, reference compound]
RXR:RAR agonist activity / transactivation alone (in words) (RXRα:RAR heterodimer): strongly transactivate

CN(C)C(=N)N=C(N)N [metformin]
Plasma glucose (db/db mice; 300 mg/kg by daily oral gavage): lowers plasma glucose
Efficacy on plasma glucose over time (db/db mice; 300 mg/kg daily, 3 weeks subsequent to first week): efficacy of metformin decreases
